{"source": "patent EP0464022B1", "about": "“INSULINOTROPIC HORMONE” (THE GENERAL HOSPITAL CORPORATION, priority 1989, dated 2000)", "key": {"[1]": {"tested_on": "Rat insulinoma cells of cell line RIN-38", "experiment": "mRNA levels by Northern hybridization in insulinoma cells", "assay_type": "cell-based", "conditions": "peptide 10^-7M; 25 mM glucose", "description": "The cells were maintained in DMEM (Gibco) at a glucose concentration of 4,500 mg/L and supplemented with 10% heat-inactivated fetal bovine serum (Gibco), 100 U/ml of penicillin and 100 µg/ml of streptomycin. Incubations were carried out at 37°C in 95% air:5% CO2. Cells grown in the above manner were washed and resuspended in DMEM (Gibco) containing 0.1% bovine serum albumin and 25 mM glucose. […] In all cases, the concentration of peptides was 10^-7M. Incubations were for six hours.\nMessenger RNAs specific for insulin, actin, or angiotensinogen were identified by Northern hybridization as follows: cellular RNA was extracted from solid tumors and cells by homogenization in guanidine thiocyanate and sedimentation through a cesium chloride cushion. Poly A^+ RNA was isolated by oligo dT cellulose chromatography (Aviv, H., et al., Proc. Natl. Acad. Sci., USA 69:1408-1412 (1972)). Twenty micrograms of total RNA from each sample were fractionated by size on a 1.4% agarose gel after denaturation in glyoxal, followed by electrotransfer to a nylon membrane (Nytran; Schleicher and Schuell). […] The relative amounts of the specific mRNA were determined by microdensitometry."}, "RINS-38 insulinoma cells": {"tested_on": "RINS-38 insulinoma cells", "experiment": "Cellular cAMP levels (Table 2)", "assay_type": "cell-based, rat", "design": "cAMP: unit not given here", "conditions": "for stimulation of cAMP levels: even at 10^-11M; for cAMP: 10 minutes", "protocol": "Cells were grown as described in Example 1, in […] culture dishes. Varying amounts of glucagon-like peptides were added to culture wells in triplicate. After permitting incubation for 10 minutes, the total cell media was examined for cAMP, and the concentration of cAMP was determined. Twenty microliters from each culture well was assayed."}, "[2]": {"tested_on": "insulinoma cell line RIN 1046-38", "experiment": "cAMP formation in insulinoma cell line", "assay_type": "cell-based, rat", "conditions": "for effects on the formation of cAMP: 5 nM and 50 pM; for effect on cAMP levels: 0.5 µM", "description": "Cells were incubated for 10 minutes in the presence of 0, 10^-11, 10^-9, or 10^-7M peptides."}, "rat pancreas": {"tested_on": "rat pancreas", "experiment": "Pancreatic perfusion assay of insulinotropic activity (isolated perfused rat pancreas, insulin radioimmunoassay)", "assay_type": "in vivo", "excerpt": "The insulinotropic property of a compound may be determined by providing that compound to animal cells, or injecting that compound into animals and monitoring the release of immunoreactive insulin (IRI) into the media or circulatory system of the animal, respectively. The presence of IRI is detected through the use of a radioimmunoassay which can specifically detect insulin. Although any radioimmunoassay capable of detecting the presence of IRI may be employed, It is preferable to use a modification of the assay method of Albano, J.D.M., et al., (Acta Endocrinol. 70:487-509 (1972)). In this modification, a phosphate/albumin buffer with a pH of 7.4 was employed. The incubation was prepared with the consecutive condition of 500 µl of phosphate buffer, 50 µl of perfusate sample or rat insulin standard in perfusate, 100 µl of anti-insulin antiserum (Wellcome Laboratories; 1:40,000 dilution), and 100 µl of [^125I] insulin, giving a total volume of 750 µl in a 10 x 75-mm disposable glass tube. After incubation for 2-3 days at 4°C, free insulin was separated from antibody-bound insulin by charcoal separation. The assay sensitivity was 1-2 µU/ml.\nThe insulinotropic property of a compound may also be determined by pancreatic infusion. The in situ isolated perfused rat pancreas preparation was a modification of the method of Penhos, J.C., et al. (Diabetes 18:733-738 (1969)). In accordance with such a method, fasted rats (preferably male Charles River strain albino rats), weighing 350-600 g, are anesthetized with an intraperitoneal injection of Amytal Sodium (Eli Lilly and Co., 160 ng/kg). Renal, adrenal, gastric, and lower colonic blood vessels are ligated. The entire intestine is resected except for about four cm of duodenum and the descending colon and rectum. […] The perfusate is preferably a modified Krebs-Ringer bicarbonate buffer with 4% dextran T70 and 0.2% bovine serum albumin (fraction V), and is preferably bubbled with 95% O2 and 5% CO2. A nonpulsatile flow, four-channel roller-bearing pump (Buchler polystatic, Buchler Instruments Division, Nuclear-Chicago Corp.) is preferably used, and a switch from one perfusate source to another is preferably accomplished by switching a three-way stopcock.\nIsolated rat pancreas was prepared according to the method of Weir, G.C., et al., (J. Clin. Invest. 54:1403-1412 (1974)), and Penkos, J.C., et al. (Diabetes 18:733-738 (1969)). The perfusate contained bicarbonate buffer (pH 7.4) and 120 mg/dl glucose, 4% dextran T-70, and 0.2% bovine serum albumin, and was equilibrated with 95% oxygen and 5% carbon dioxide. The first 20 minutes of each perfusion was an equilibrium period. After this initial period, aliquots of perfusate were removed every 2-4 min for additional 20 min, thus allowing the system to equilibrate for a total of 40 min. The perfusion, including any added insulinotropic peptide, was for 6 min and samples were collected at 1-min intervals. When more than one perfusion was to be performed, the peptide perfusions were followed by equilibration periods of 20 min, during which four samples 5 min apart were collected. […] Again, samples 1 min apart were collected. The entire perfusion time was between 70 and 85 mm.\nIn each aliquot of perfusate obtained, insulin was determined by radioimmunoassay."}, "[3]": {"experiment": "Stability in culture medium (HPLC and radioimmunoassay)", "assay_type": "in vitro ADME", "conditions": "24 hr; conditioned medium containing 01% bovine serum albumin", "protocol": "To assess the stability of the […] peptide in the experimental conditions, GLP-1 (1-37) was incubated for 24 hr in culture medium alone or in medium supplemented with either 0.1% bovine serum albumin or 10% fetal bovine serum. Aliquots of media were analyzed by high-pressure liquid chromatography and radioimmunoassay."}}}
{"substance": "GLP-II: glucagon-like peptide 2 (GLP-2) (HADGSFSDEMNTILDNLAARDFINWLIQTKITD; Glucagon-like peptide 2; UniProt P01275 146-178, looked up)", "values": [{"measurement": "effect on insulin mRNA levels", "setting": "[1]", "result": "no effects"}, {"measurement": "stimulation of cAMP levels", "setting": "RINS-38 insulinoma cells", "result": "neither GLP-1 (1-37) nor GLP-II exhibited such activity"}]}
{"substance": "GLP-1-(1-36)-NH2: GLP-1 (1-36 des-gly-arg amide); Peninsula Laboratories", "values": [{"measurement": "effects on the formation of cAMP", "setting": "[2]", "result": "negligible"}, {"measurement": "effect on cAMP levels", "setting": "[2]", "result": "increased cAMP levels"}]}
{"substance": "GLP-1 (1-37): GLP-1 polypeptide having all amino acids from 1 (N-terminus) through 37 (C-terminus)", "values": [{"measurement": "stimulation of cAMP levels", "setting": "RINS-38 insulinoma cells", "result": "neither GLP-1 (1-37) nor GLP-II exhibited such activity"}, {"measurement": "cAMP", "setting": "RINS-38 insulinoma cells; peptide 10^-6 M", "result": 170}, {"measurement": "cAMP", "setting": "RINS-38 insulinoma cells; peptide 10^-7 M", "result": 120}, {"measurement": "cAMP", "setting": "RINS-38 insulinoma cells; peptide 10^-8 M", "result": 160}, {"measurement": "cAMP", "setting": "RINS-38 insulinoma cells; peptide 10^-9 M", "result": 100}, {"measurement": "cAMP", "setting": "RINS-38 insulinoma cells; peptide 10^-10 M", "result": 90}, {"measurement": "cAMP", "setting": "RINS-38 insulinoma cells; peptide 10^-11 M", "result": 90}, {"measurement": "effects on the formation of cAMP", "setting": "[2]", "result": "negligible"}, {"measurement": "effect on cAMP levels", "setting": "[2]", "result": "increased cAMP levels"}, {"measurement": "increase in serum insulin concentrations", "setting": "rat pancreas; 5 x 10^-7M", "result": 3.4, "unit": "fold"}, {"measurement": "Insulin Produced", "setting": "rat pancreas; 5x10^-7M, 0 minutes (before peptide added)", "result": "1,400 picograms/ml"}, {"measurement": "Insulin Produced", "setting": "rat pancreas; 5x10^-7M, 1 minute", "result": "4,700 picograms/ml"}, {"measurement": "Insulin Produced", "setting": "rat pancreas; 5x10^-7M, 2 minutes", "result": "2,900 picograms/ml"}, {"measurement": "Insulin Produced", "setting": "rat pancreas; 5x10^-7M, 3 minutes", "result": "2,200 picograms/ml"}, {"measurement": "increase in serum insulin levels", "setting": "rat pancreas; 5 x 10^-8M", "result": "two-fold"}, {"measurement": "Insulin Produced", "setting": "rat pancreas; 5x10^-8M, 0 minutes (before peptide added)", "result": "3,000 picograms/ml"}, {"measurement": "Insulin Produced", "setting": "rat pancreas; 5x10^-8M, 1 minute", "result": "6,000 picograms/ml"}, {"measurement": "Insulin Produced", "setting": "rat pancreas; 5x10^-8M, 2 minutes", "result": "2,000 picograms/ml"}, {"measurement": "Insulin Produced", "setting": "rat pancreas; 5x10^-8M, 3 minutes", "result": "2,000 picograms/ml"}, {"measurement": "increase in serum insulin levels", "setting": "rat pancreas; 5 x 10^-10M", "result": 20, "unit": "%"}, {"measurement": "Insulin Produced", "setting": "rat pancreas; 5x10^-10M, 0 minutes (before peptide added)", "result": 500, "unit": "picograms/ml"}, {"measurement": "Insulin Produced", "setting": "rat pancreas; 5x10^-10M, 1 minute", "result": 600, "unit": "picograms/ml"}, {"measurement": "Insulin Produced", "setting": "rat pancreas; 5x10^-10M, 2 minutes", "result": 640, "unit": "picograms/ml"}, {"measurement": "Insulin Produced", "setting": "rat pancreas; 5x10^-10M, 3 minutes", "result": 430, "unit": "picograms/ml"}, {"measurement": "effect on insulin levels", "setting": "rat pancreas; 5 x 10^-11M", "result": "without effect"}, {"measurement": "Insulin Produced", "setting": "rat pancreas; 5x10^-11M, 0 minutes (before peptide added)", "result": 340, "unit": "picograms/ml"}, {"measurement": "Insulin Produced", "setting": "rat pancreas; 5x10^-11M, 1 minute", "result": 180, "unit": "picograms/ml"}, {"measurement": "Insulin Produced", "setting": "rat pancreas; 5x10^-11M, 2 minutes", "result": 230, "unit": "picograms/ml"}, {"measurement": "Insulin Produced", "setting": "rat pancreas; 5x10^-11M, 3 minutes", "result": 340, "unit": "picograms/ml"}, {"measurement": "Insulin Produced", "setting": "rat pancreas; 5x10^-12M, 0 minutes (before peptide added)", "result": 50, "unit": "picograms/ml"}, {"measurement": "Insulin Produced", "setting": "rat pancreas; 5x10^-12M, 1 minute", "result": 50, "unit": "picograms/ml"}, {"measurement": "Insulin Produced", "setting": "rat pancreas; 5x10^-12M, 2 minutes", "result": 160, "unit": "picograms/ml"}, {"measurement": "Insulin Produced", "setting": "rat pancreas; 5x10^-12M, 3 minutes", "result": 50, "unit": "picograms/ml"}, {"measurement": "insulinotropic activity", "setting": "rat pancreas; 10^-11 M, five minute perfusion", "result": "inactive"}, {"measurement": "insulin-releasing activity", "setting": "rat pancreas; even at concentrations as high as 5 X 10^-7M", "result": "no insulin-releasing activity"}, {"measurement": "biological half-life", "setting": "Biological half-life", "result": "30-50 minutes"}, {"measurement": "stability: cleavage after incubation", "setting": "[3]", "result": "a small peak of GLP-1 (7-37) appeared"}]}
